From BindingDB's records for doi:10.1021/np070259w (Institute of Plant Biochemistry, 2007) come the findings set out here.

Counter-ions that a name gives are not always drawn.

This experiment in a line: Inhibition of equine BChE at 100 uM by Ellman's method.

As a reminder, the IC50 is the concentration at which inhibition is half-maximal. Low values mean greater potency in that assay, high ones weaker potency in that assay.

Turning to `CNC(=O)Oc1ccc2c(c1)[C@]1(C)CCN(C)[C@@H]1N2C` [(3aS,8aR)-1,3a,8-trimethyl-1,2,3,3a,8,8a-hexahydropyrrolo[2,3-b]indol-5-yl methylcarbamate hydrochloride], the IC50 is 3.5 µM.
